Earlier results as cited in patent US6455580B1, “Method and composition for antiviral therapy” (F&S Group, Inc., priority 1994, dated 2002).

Key:
[1] = not given; remark: listed apart in the source
[2] = animal studies; oleuropein itself or as component of plant tissue extracts

SMILES	antiviral properties in vitro	antiviral activity in vivo [1]	hypoglycemic and cardiovascular effects [2]
COC(=O)C1=CO[C@@H](C)[C@@H](C=O)C1CC(=O)O (single isomer, unassigned; (-)) [(−)-elenolic acid]	antiviral properties in vitro	little, if any, activity in vivo	–
C/C=C1/[C@H](O[C@@H]2O[C@H](CO)[C@@H](O)[C@H](O)[C@H]2O)OC=C(C(=O)OC)[C@H]1CC(=O)OCCc1ccc(O)c(O)c1 [oleuropein]	–	–	exhibit both hypoglycemic and cardiovascular effects
